According to paper PMC3063099 (Xenobiotica; the fate of foreign compounds in biological …, 2010):
Where two headings read alike, the source gives them in different places. One block for each compound: values may come before it.

What was measured:
CYP3A4 wild type [1] = molecular target: T1, CYP3A4 wild type (Homo sapiens, UniProt P08684); conditions: pH 7.4
CYP3A4 wild type [2] = molecular target: T1, CYP3A4 wild type; test: Absorbance titration, substrate-induced spin shift; conditions: for Kd: human, pH 7.4; for nH (Hill coefficient): Hill equation fit
CYP3A4 mutant F304W [3] = molecular target: T2, CYP3A4 mutant F304W (Homo sapiens, UniProt P08684, F304W); test: Absorbance titration, substrate-induced spin shift; conditions: for nH (Hill coefficient): Hill equation fit; for Kd: human, pH 7.4
T2 sequence (P08684 whole entry F304W): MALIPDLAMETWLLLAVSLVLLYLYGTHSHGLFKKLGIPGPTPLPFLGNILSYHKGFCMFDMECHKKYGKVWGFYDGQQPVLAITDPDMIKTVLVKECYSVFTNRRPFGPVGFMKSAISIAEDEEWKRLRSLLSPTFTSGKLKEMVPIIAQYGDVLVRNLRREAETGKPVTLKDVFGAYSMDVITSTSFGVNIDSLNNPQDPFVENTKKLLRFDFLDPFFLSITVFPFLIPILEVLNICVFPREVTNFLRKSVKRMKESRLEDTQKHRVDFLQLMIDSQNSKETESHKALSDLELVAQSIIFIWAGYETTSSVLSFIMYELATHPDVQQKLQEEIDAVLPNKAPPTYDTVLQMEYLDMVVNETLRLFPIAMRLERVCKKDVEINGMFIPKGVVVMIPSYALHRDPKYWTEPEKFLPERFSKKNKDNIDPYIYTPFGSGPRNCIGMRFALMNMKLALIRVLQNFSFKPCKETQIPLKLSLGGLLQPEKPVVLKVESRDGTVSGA

[4] = molecular target: T3, CYP3A4 mutant L211F/D214E (Homo sapiens, UniProt P08684, D214E/L211F); conditions: pH 7.4
T3 sequence (P08684 whole entry L211F/D214E): as the sequence (P08684 whole entry F304W) above, with L211F, D214E, W304F counted along it

CYP3A4 mutant F213W [5] = molecular target: T4, CYP3A4 mutant F213W (Homo sapiens, UniProt P08684, F213W); conditions: pH 7.4
T4 sequence (P08684 whole entry F213W): as the sequence (P08684 whole entry F304W) above, with F213W, W304F counted along it

CYP3A4 mutant F213W [6] = molecular target: T4, CYP3A4 mutant F213W; test: Absorbance titration, substrate-induced spin shift; conditions: for nH (Hill coefficient): Hill equation fit; for Kd: human, pH 7.4
[7] = molecular target: T3, CYP3A4 mutant L211F/D214E; test: Absorbance titration, substrate-induced spin shift; conditions: for nH (Hill coefficient): Hill equation fit; for Kd: human, pH 7.4
CYP3A4 mutant F304W [8] = molecular target: T2, CYP3A4 mutant F304W; conditions: pH 7.4
[9] = molecular target: T3, CYP3A4 mutant L211F/D214E; test: Titration-by-dilution monitored by FRET; type: binding; conditions: for Efficiency of FRET: L211F/D214E
[10] = molecular target: T3, CYP3A4 mutant L211F/D214E; test: Titration-by-dilution at excess substrate monitored by spin shift; type: binding
CYP3A4 mutant F304W [11] = molecular target: T2, CYP3A4 mutant F304W; test: as above; type: binding
CYP3A4 mutant F213W [12] = molecular target: T4, CYP3A4 mutant F213W; test: as above; type: binding
CYP3A4 wild type [13] = molecular target: T1, CYP3A4 wild type; test: as above; type: binding
CYP3A4 mutant F213W [14] = molecular target: T4, CYP3A4 mutant F213W; test: Titration-by-dilution monitored by FRET; type: binding; conditions: for Efficiency of FRET: F213W
CYP3A4 wild type [15] = molecular target: T1, CYP3A4 wild type; test: Titration-by-dilution monitored by FRET; type: binding; conditions: for Efficiency of FRET: wild type
CYP3A4 mutant F304W [16] = molecular target: T2, CYP3A4 mutant F304W; test: Titration-by-dilution monitored by FRET; type: binding; conditions: for Efficiency of FRET: F304W
[17] = equimolar enzyme-substrate mixture
[18] = human, CYP3A4 wild type enzyme in buffer, pH 7.4

T1 sequence (P08684 whole entry): as the sequence (P08684 whole entry F304W) above, with W304F counted along it

Δhmax, amplitude of the substrate-induced spin shift (CYP3A4 wild type [1]): 40.0 ± 2.5%
Kd (CYP3A4 wild type [2]; CYP3A4 wild type enzyme in buffer): 3.66 ± 0.7 µM
nH (Hill coefficient) (CYP3A4 wild type [2]; wild type, pH 7.4, 25 °C): 2.04 ± 0.30
nH (Hill coefficient) (CYP3A4 mutant F304W [3]; F304W, pH 7.4, 25 °C): 2.10 ± 0.20
Kd (CYP3A4 mutant F304W [3]; CYP3A4 mutant F304W enzyme in buffer): 3.63 ± 1.46 µM
Δhmax, amplitude of the substrate-induced spin shift [4]: 27.9 ± 2.2%
Δhmax, amplitude of the substrate-induced spin shift (CYP3A4 mutant F213W [5]): 33.5 ± 2.1%
nH (Hill coefficient) (CYP3A4 mutant F213W [6]; F213W, pH 7.4, 25 °C): 1.52 ± 0.30
Kd (CYP3A4 mutant F213W [6]; CYP3A4 mutant F213W enzyme in buffer): 3.5 ± 1.36 µM
nH (Hill coefficient) ([7]; L211F/D214E, pH 7.4, 25 °C): 1.68 ± 0.16
Kd ([7]; CYP3A4 mutant L211F/D214E enzyme in buffer): 3.67 ± 1.16 µM
Δhmax, amplitude of the substrate-induced spin shift (CYP3A4 mutant F304W [8]): 36.0 ± 5.2%
Structure (SMILES): O=c1cc(-c2ccccc2)oc2c1ccc1ccccc12 [ANF, α-naphthoflavone]

Structure (SMILES): OCCCCc1ccc2ccc3cccc4ccc1c2c34 [1-PB, 1-pyrenebutanol]
Kd ([9]; KD1, L211F/D214E, equimolar enzyme-substrate mixture, FRET, 0.6 mg/ml HPCD): 0.82 ± 0.43 µM
Efficiency of FRET [9, 17]: 108.4 ± 12.9%
Efficiency of FRET ([9]; excess substrate (1:6)): 83.4 ± 16.4%
Kd (CYP3A4 wild type [2]; 0.1 m na-hepes): 11.7 ± 2.4 µM
Kd (CYP3A4 wild type [2]): 12.6 µM
nH (Hill coefficient) (CYP3A4 wild type [2]; wild type, pH 7.4, 25 °C): 1.67 ± 0.18
nH (Hill coefficient) (CYP3A4 wild type [2]; wild type, pH 7.4, 25 °C, listed as 1-pyrenebutanol): around 1.7
Δhmax, amplitude of the substrate-induced spin shift (CYP3A4 wild type [2]; wild type, absorbance titration, pH 7.4, 25 °C): 46.7 ± 4.9%
FES, fraction of total spin shift caused by the binary complex ES (CYP3A4 wild type [2]; wild type, fit to improved sequential model): 0
nH (Hill coefficient) (CYP3A4 mutant F304W [3]; F304W, pH 7.4, 25 °C): 1.07 ± 0.12
nH (Hill coefficient) (CYP3A4 mutant F304W [3]; F304W, pH 7.4, 25 °C, listed as 1-pyrenebutanol): ≤ 1.1
Δhmax, amplitude of the substrate-induced spin shift (CYP3A4 mutant F304W [3]; F304W, absorbance titration, pH 7.4, 25 °C): 57.7 ± 5.6%
FES, fraction of total spin shift caused by the binary complex ES (CYP3A4 mutant F304W [3]; F304W, fit to improved sequential model, KD1 fixed): 15.1 ± 0.8%
Kd (CYP3A4 mutant F304W [3]; 0.1 m na-hepes): 10.7 ± 2 µM
Δhmax, maximal amplitude of the spin shift deduced from fitting ([10]; L211F/D214E, dilution at excess substrate (1:5)): 18.2 ± 7.1%
Kd ([10]; human, CYP3A4 mutant L211F/D214E enzyme in buffer, pH 7.4): 7.3 ± 2.9 µM
Δhmax, maximal amplitude of the spin shift deduced from fitting (CYP3A4 mutant F304W [11]; F304W, dilution at excess substrate (1:5)): 23.2 ± 14.0%
Kd (CYP3A4 mutant F304W [11]; human, CYP3A4 mutant F304W enzyme in buffer, pH 7.4): 11.4 ± 1.1 µM
nH (Hill coefficient) (CYP3A4 mutant F213W [6]; F213W, pH 7.4, 25 °C): 1.07 ± 0.16
nH (Hill coefficient) (CYP3A4 mutant F213W [6]; F213W, pH 7.4, 25 °C, listed as 1-pyrenebutanol): ≤ 1.1
Δhmax, amplitude of the substrate-induced spin shift (CYP3A4 mutant F213W [6]; F213W, absorbance titration, pH 7.4, 25 °C): 57.0 ± 5.9%
FES, fraction of total spin shift caused by the binary complex ES (CYP3A4 mutant F213W [6]; F213W, fit to improved sequential model, KD1 fixed): 7.9 ±1.0%
Kd (CYP3A4 mutant F213W [6]; 0.1 m na-hepes): 12.6 ± 4.6 µM
nH (Hill coefficient) ([7]; L211F/D214E, pH 7.4, 25 °C): 1.07 ± 0.17
nH (Hill coefficient) ([7]; L211F/D214E, pH 7.4, 25 °C, listed as 1-pyrenebutanol): ≤ 1.1
Δhmax, amplitude of the substrate-induced spin shift ([7]; L211F/D214E, absorbance titration, pH 7.4, 25 °C): 39.4 ± 5.1%
FES, fraction of total spin shift caused by the binary complex ES ([7]; L211F/D214E, fit to improved sequential model, KD1 fixed): 21.0 ± 5.7%
Kd ([7]; 0.1 m na-hepes): 12.1 ± 1.8 µM
Δhmax, maximal amplitude of the spin shift deduced from fitting (CYP3A4 mutant F213W [12]; F213W, dilution at excess substrate (1:5)): 40.0 ± 16%
Kd (CYP3A4 mutant F213W [12]; human, CYP3A4 mutant F213W enzyme in buffer, pH 7.4): 14.4 ± 1.5 µM
Kd (CYP3A4 wild type [13]; [18]): 10.2 ± 1.2 µM
Δhmax, maximal amplitude of the spin shift deduced from fitting (CYP3A4 wild type [13]; wild type, dilution at excess substrate (1:5)): 49.7 ± 7.3%
Efficiency of FRET (CYP3A4 mutant F213W [14]; [17]): 80.8 ± 26.4%
Efficiency of FRET (CYP3A4 mutant F213W [14]; excess substrate (1:5)): 109.0 ± 2.0%
Kd (CYP3A4 mutant F213W [14]; KD1, F213W, equimolar enzyme-substrate mixture, FRET, 0.6 mg/ml HPCD): 0.07 ± 0.04 µM
Kd (CYP3A4 wild type [15]): 0.25 ± 0.11 µM
Kd (CYP3A4 wild type [15]; [18]): 5 ± 1.1 µM
Efficiency of FRET (CYP3A4 wild type [15]; [17]): 95.2 ± 5.7%
Efficiency of FRET (CYP3A4 wild type [15]; excess substrate (1:4)): 108.0 ± 1.2%
Efficiency of FRET (CYP3A4 mutant F304W [16]; [17]): 99.6 ± 7.8%
Efficiency of FRET (CYP3A4 mutant F304W [16]; excess substrate (1:6)): 109.0 ± 1.6%
Kd (CYP3A4 mutant F304W [16]; KD1, F304W, equimolar enzyme-substrate mixture, FRET, 0.6 mg/ml HPCD): 0.26 ± 0.08 µM
